Measured values as given in publication PMC5339874, “Fluorene-9-bisphenol is anti-oestrogenic and may cause adverse pregnancy outcomes in mice” (Nature Communications, 2017).
Where two headings read alike, the source gives them in different places.

What was measured:
sprr2a and sprr2b = experiment: Q-RT-PCR of sprr2a and sprr2b in uteri after 10-day dosing; type: in vivo, mice; conditions: 10 days; P<0.05
Procedure: The uteri, ovaries and livers were collected for total RNA isolation. Total RNA was isolated using Trizol reagent (Invitrogen) and further purified by NucleoSpin RNA Clean-up (Macherey-Nagel, Germany). Fluorescence labelling of the RNA samples was performed with a Jingxin cRNA linear amplification and labelling kit (CapitalBio) according to the manufacturer's instructions. The total RNA from each pool of tissue samples (a mixture from three animals) was used for microarray analysis. Cy3 dCTP was used to label the samples. The labelled products were added to SurePrint G3 mouse gene expression 8 × 60 K microarrays (Agilent) and incubated overnight at 42 °C. Following hybridization, the gene arrays were washed and scanned using an Agilent G2565CA Microarray Scanner. Glyceraldehyde 3-phosphate dehydrogenase (GAPDH) was used as an endogenous control to monitor the quality of the target preparation. The data were processed with feature extraction software (GeneSpring GX v.11; Agilent). The raw signals were log-transformed and normalized with the percentile shift normalization method. All arrays met the minimum Agilent QA/QC standards. To verify the data from the gene array, 14 genes were chosen as candidates for Q-RT-PCR. Primers are listed in Supplementary Table 4. GAPDH was used as an endogenous control. […] The relative expression was quantified using the 2^(−ΔΔCt) method. […]

[1] = biological target: T1, human oestrogen receptor α (Homo sapiens, UniProt P03372); experiment: Dual-luciferase reporter assay, full-length ERα and ERE in JEG-3 cells; type: cell-based
T1 construct: expressed in transfected cells; host or cells: JEG-3 human choriocarcinoma cells
T1 sequence (P03372 1-595): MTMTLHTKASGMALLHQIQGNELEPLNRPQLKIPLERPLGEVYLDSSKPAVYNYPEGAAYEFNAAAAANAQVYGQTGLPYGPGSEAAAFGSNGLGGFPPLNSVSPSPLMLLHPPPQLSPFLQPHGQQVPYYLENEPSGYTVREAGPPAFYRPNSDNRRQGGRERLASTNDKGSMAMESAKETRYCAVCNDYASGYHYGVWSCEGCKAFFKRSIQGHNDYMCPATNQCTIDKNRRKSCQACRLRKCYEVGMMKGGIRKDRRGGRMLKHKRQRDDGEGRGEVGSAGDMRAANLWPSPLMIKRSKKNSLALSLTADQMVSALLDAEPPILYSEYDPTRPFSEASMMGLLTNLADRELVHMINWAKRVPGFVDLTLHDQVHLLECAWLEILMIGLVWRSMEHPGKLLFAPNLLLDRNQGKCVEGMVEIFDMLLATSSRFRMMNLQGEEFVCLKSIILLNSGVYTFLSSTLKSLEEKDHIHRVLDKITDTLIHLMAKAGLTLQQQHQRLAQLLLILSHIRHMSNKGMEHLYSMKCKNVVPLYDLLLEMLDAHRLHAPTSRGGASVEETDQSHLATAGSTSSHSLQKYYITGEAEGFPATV
Procedure: Dual-luciferase reporter assays were carried out primarily according to the method described in a previous study. In short, full-length sequences of human oestrogen receptor α and β were amplified by RT-PCR using mRNA from MCF-7 (Supplementary Table 3), and inserted into a pSVSPORT1 (Invitrogen); the resulting constructs were termed pSVhERα and pSVhERβ. A reporter plasmid containing ERE was constructed by inserting four tandem repeats of an ERE of Xenopus laevis vitellogenin A2 into a pGL4.23 vector (Promega), and was termed pGL4-ERE-luc. […] The Renilla LUC control reporter construct pGL4.74-TK was purchased from Promega (Madison, WI). […] The assays were performed in quadruplicate, and the results were expressed as the fold induction of the control after normalization against Renilla luciferase activity. Sigmoidal dose-effect curves were calculated using the GraphPad Prism 4 software. The IC50 values were calculated on the basis of the sigmoidal dose-effect curves. […]

[2] = biological target: T2, human oestrogen receptor β (Homo sapiens, UniProt Q92731); experiment: Dual-luciferase reporter assay, full-length ERβ and ERE in JEG-3 cells; type: cell-based
T2 construct: expressed in transfected cells; host or cells: JEG-3 human choriocarcinoma cells
Procedure: Dual-luciferase reporter assays were carried out primarily according to the method described in a previous study. In short, full-length sequences of human oestrogen receptor α and β were amplified by RT-PCR using mRNA from MCF-7 (Supplementary Table 3), and inserted into a pSVSPORT1 (Invitrogen); the resulting constructs were termed pSVhERα and pSVhERβ. A reporter plasmid containing ERE was constructed by inserting four tandem repeats of an ERE of Xenopus laevis vitellogenin A2 into a pGL4.23 vector (Promega), and was termed pGL4-ERE-luc. […] The Renilla LUC control reporter construct pGL4.74-TK was purchased from Promega (Madison, WI). Human choriocarcinoma JEG-3 cells (ATCC No. HTB-36) were obtained from the American Type Culture Collection (ATCC; Manassas, VA) and were cultured in minimal essential medium (MEM, Invitrogen, Carlsbad, CA) containing 2 mM L-glutamine, 0.1 mM minimal essential medium nonessential amino acid solution (Invitrogen/Thermo Fisher Scientific, Grand Island, NY), and 10% fetal calf serum (FCS) at 37 °C in a humidified atmosphere containing 5% CO2. The cells (3 × 10^4 cells per well) were seeded in 24-well plates 24 h before transfection. The cells were transfected with pGL4-ERE-luc (5 ng per well), pGL 4.74-TK (0.2 ng per well) and either pSVhERα (5 ng per well) or pSVhERβ (5 ng per well) using Lipofectamine reagent (Invitrogen). At 24 h after transfection, the compounds in DMSO were added to the cultures at a volume ratio (v/v) of 0.1%. The cells were continuously cultured in medium supplemented with 1% charcoal-stripped FCS for another 24 h and then harvested, and cell extracts were assayed for firefly luciferase activity. The assays were performed in quadruplicate, and the results were expressed as the fold induction of the control after normalization against Renilla luciferase activity. Sigmoidal dose-effect curves were calculated using the GraphPad Prism 4 software. The IC50 values were calculated on the basis of the sigmoidal dose-effect curves. […]

[3] = coexisted with 1 × 10^−9 M E2, read-out: IC50, anti-oestrogenic activity
[4] = vs 1 nM E2, read-out: IC50 converted to mass concentration (converted)

T2 sequence (Q92731 whole entry): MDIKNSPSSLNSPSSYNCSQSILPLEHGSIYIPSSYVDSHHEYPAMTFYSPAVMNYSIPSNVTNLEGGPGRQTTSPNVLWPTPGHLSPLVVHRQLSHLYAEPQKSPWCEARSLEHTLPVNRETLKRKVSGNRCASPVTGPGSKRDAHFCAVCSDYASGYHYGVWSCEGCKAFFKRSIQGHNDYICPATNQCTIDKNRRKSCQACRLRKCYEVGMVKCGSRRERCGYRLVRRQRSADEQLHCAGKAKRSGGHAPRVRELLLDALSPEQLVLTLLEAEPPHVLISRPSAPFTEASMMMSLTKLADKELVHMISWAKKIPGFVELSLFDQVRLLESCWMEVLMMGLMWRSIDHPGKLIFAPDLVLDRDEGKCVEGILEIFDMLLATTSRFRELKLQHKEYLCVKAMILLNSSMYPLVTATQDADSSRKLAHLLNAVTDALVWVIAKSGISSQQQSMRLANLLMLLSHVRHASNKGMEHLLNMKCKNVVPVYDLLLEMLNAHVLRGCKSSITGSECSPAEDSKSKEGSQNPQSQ

In the case of Oc1ccc(C2(c3ccc(O)cc3)c3ccccc3-c3ccccc32)cc1 [BHPF, 9,9-bis(4-hydroxyphenyl)-fluorene], the “doses significantly down-regulating sprr2a and sprr2b in uteri” value (sprr2a and sprr2b) is reported as no less than 9.26 mg kg^−1 bw d^−1, the IC50 [1, 3] is reported as 109 nM and the IC50 [1, 4] is reported as 109 nM. For the same compound, the IC50 [2, 3] was 75.3 nM, the oestrogenic activity ([2]; compound alone) was “no oestrogenic activity” and the IC50 [2, 4] was 75.3 nM.
